Experimental data taken from patent US9630962B2, “4-amino-6-(2,6-dichlorophenyl)-2-(phenylamino)-pyrido[2,3-d]pyrimidin-7(8H)-one derivatives, synthesis and uses thereof” (INSTITUT QUÍMIC DE SARRIÁ, CETS FUNDACIÓ PRIVADA, priority 2013, dated 2017).
Like-named read-outs stand apart in the source and are kept apart here.

Experiments:
BTK = target: T1, BTK (Homo sapiens, UniProt Q06187); experiment: Radiometric protein kinase assay (33PanQinase Activity Assay), residual activity; type: biochemical; settings: 10 μM (1×10^−05 M) test compound, singlicate
T1 construct: purchased ProQinase; host or cells: Sf9 insect cells or E. coli (not specified per kinase)
T1 sequence (Q06187 whole entry): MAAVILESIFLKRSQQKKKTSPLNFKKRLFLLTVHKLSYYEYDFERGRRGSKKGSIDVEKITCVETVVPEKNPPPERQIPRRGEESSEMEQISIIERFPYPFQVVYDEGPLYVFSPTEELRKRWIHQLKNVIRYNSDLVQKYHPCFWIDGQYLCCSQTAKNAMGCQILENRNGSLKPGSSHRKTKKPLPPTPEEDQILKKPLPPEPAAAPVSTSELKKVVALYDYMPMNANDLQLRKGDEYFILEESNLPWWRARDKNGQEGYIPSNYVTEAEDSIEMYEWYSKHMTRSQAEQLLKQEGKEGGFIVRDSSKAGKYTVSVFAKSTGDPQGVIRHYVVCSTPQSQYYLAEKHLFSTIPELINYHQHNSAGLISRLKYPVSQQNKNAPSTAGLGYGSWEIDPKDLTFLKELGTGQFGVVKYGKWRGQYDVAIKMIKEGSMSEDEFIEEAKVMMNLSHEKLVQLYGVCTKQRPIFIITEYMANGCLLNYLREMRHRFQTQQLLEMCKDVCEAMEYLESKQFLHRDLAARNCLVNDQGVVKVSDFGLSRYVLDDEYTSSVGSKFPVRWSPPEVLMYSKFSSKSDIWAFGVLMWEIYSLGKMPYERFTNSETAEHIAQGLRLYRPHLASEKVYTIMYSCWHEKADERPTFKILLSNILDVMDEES
Experimental: (§1) The kinase inhibition profile of compounds of formula (I) was evaluated at Proqinase (http://www.proqinase.conn) by measuring residual activity values at a concentration of 10 μM of the test compound in singlicate in front of the following kinases: BTK, LYN, SYK aa1-635 using the following protocol:
(§2) The compounds were dissolved to 1×10^−03 M stock solutions in 100% DMSO. Subsequently, 100 μl of each stock solution were transferred into wells A3-F12 of a microtiter plate (“master plate”). Wells A1-F2 were filled with 100 μl 100% DMSO as controls. 5×10 μl of the master plate were aliquoted into 5 copy plates, which were stored at −20° Celsius until use. For the testing of each group of up to 8 kinases, one copy plate was used.
(§3) In the process, 90 μl H2O were added to each well of a copy plate. To minimize precipitation, the H2O was added to each well only a few minutes before the transfer of the compound solutions into the assay plates. The plate was shaken thoroughly, resulting in a “compound dilution plate” with a compound concentration of 1×10^−04 M/10% DMSO. This plate was used for the transfer of 5 μl compound solution into the assay plates. The final volume of the assay was 50 μl. All compounds were tested at 1×10^−05 M in singlicate. The final DMSO concentration in the reaction cocktails was 1% in all cases. The compound dilution plates were disposed at the end of each working day.
(§4) A radiometric protein kinase assay (^33PanQinase® Activity Assay) was used for measuring the kinase activity of the corresponding protein kinases. All kinase assays were performed in 96-well FlashPlates™ from Perkin Elmer (Boston, Mass., USA) in a 50 μl reaction volume. The reaction cocktail was pipetted in 4 steps in the following order: • 10 μl of non-radioactive ATP solution (in H2O) • 25 μl of assay buffer/[γ-33P]-ATP mixture • 5 μl of test sample in 10% DMSO • 10 μl of enzyme/substrate mixture
(§5) The protein kinase reaction cocktails were incubated at 30° C. for 60 minutes. The reaction was stopped with 50 μl of 2% (v/v) H3PO4, plates were aspirated and washed two times with 200 μl 0.9% (w/v) NaCl. All assays were performed with a BeckmanCoulter Biomek 2000/SL robotic system. Incorporation of ^33Pi (counting of “cpm”) was determined with a microplate scintillation counter (Microbeta, Wallac).
(§6) All protein kinases provided by ProQinase were expressed in Sf9 insect cells or in E. coli as recombinant GST-fusion proteins or His-tagged proteins. All kinases were produced from human cDNAs and purified by either GSH-affinity chromatography or immobilized metal. Affinity tags were removed from a number of kinases during purification. The purity of the protein kinases was examined by SDS-PAGE/Coomassie staining, the identity was checked by mass spectroscopy.
(§7) For each kinase, the median value of the cpm of six wells of column 1 of each assay plate was defined as “low control” (n=6). This value reflects unspecific binding of radioactivity to the plate in the absence of a protein kinase but in the presence of the substrate. Additionally, for each kinase the median value of the cpm of six wells of column 2 of each assay plate was taken as the “high control”, i.e. full activity in the absence of any inhibitor (n=6). The difference between high and low control of each enzyme was taken as 100% activity.
(§8) As part of the data evaluation the low control of each kinase was subtracted from the high control value as well as from their corresponding “compound values”. The residual activity (in %) for each compound well was calculated by using the following formula: Res. Activity (%)=100×[(signal of compound −low control)/(high control −low control)] Results
(§9) The singlicate residual activity values of the tested compounds at one concentration (1×10^−05 M) in singlicate in the required protein kinase assays are given.

LYN = target: T2, LYN (Homo sapiens, UniProt P07948); experiment: as above; type: biochemical; settings: 10 μM (1×10^−05 M) test compound, singlicate
T2 construct: purchased ProQinase; host or cells: Sf9 insect cells or E. coli (not specified per kinase)
T2 sequence (P07948 whole entry): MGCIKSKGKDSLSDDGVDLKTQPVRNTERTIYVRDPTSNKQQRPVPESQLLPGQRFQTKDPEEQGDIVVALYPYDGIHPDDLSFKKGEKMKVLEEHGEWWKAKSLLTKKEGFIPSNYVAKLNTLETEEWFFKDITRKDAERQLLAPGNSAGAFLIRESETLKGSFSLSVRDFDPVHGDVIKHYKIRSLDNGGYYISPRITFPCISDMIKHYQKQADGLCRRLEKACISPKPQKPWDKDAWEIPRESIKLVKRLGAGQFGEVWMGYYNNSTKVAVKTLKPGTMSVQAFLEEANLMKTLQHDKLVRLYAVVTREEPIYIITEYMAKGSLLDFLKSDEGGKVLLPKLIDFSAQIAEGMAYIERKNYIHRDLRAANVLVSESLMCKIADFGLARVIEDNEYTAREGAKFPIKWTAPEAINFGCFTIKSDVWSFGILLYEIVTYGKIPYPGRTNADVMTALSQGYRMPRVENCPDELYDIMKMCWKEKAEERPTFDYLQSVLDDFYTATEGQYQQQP
Experimental: as §1, §2, §3, §4, §5, §6, §7, §8, §9

SYK aa1-635 = target: T3, SYK aa1-635 (Homo sapiens, UniProt P43405); experiment: as above; type: biochemical; settings: 10 μM (1×10^−05 M) test compound, singlicate
T3 construct: BTK, LYN, SYK aa1-635; purchased ProQinase; host or cells: Sf9 insect cells or E. coli (not specified per kinase)
Experimental: as §1, §2, §3, §4, §5, §6, §7, §8, §9

CLL cell lines = experiment: MTT proliferation assay, growth inhibition; type: cell-based; settings: n = 3 cell lines
Experimental: (§10) Cell culture: cell lines were grown in suitable culture media at 37° C. in a humidified atmosphere containing 5% CO2. The following MCL cell lines were used in the assays: Rec-1, HBL-2, UPN-1, Jeko-1, JVM-2, Maver-1, Mino, Granta-519, and Z-138. The following CLL cell lines were used in the assays: MEC-2, JVM-13, and MEC-1. The following FL cell lines were used in the assays: DoHH-2, WSU-NHL, WSU-FSCCL, and SC-1. The following DLBCL cell lines were used in the assays: OCI-LY8, SUDHL-8, U-2932, and SUDHL-16. The following media were used for the indicated cell lines: RPMI 1640+10% foetal bovine serum (FBS) for Rec-1, HBL-2, UPN-1, JVM-2, MAVER, Z138, Mino, JVM-13, WSU-NHL, WSU-FSCCL, DOHH2, SC-1 and U2932; RPMI 1640+20% FBS for Jeko-1, SUDHL-8 and SUDHL-16; DMEM+10% FBS for Granta-519; IMDM+10% FBS for MEC-1 and MEC-2; IMDM+20% FBS for OCI-LY8.
(§11) Analysis of the growth inhibition is carried out using the MTT (Thiazolyl Blue Tetrazolium Bromide) proliferation assay: cells grown in exponential phase were seeded in 96 well plates at 0.5×10^6 cell/ml and treated with 4-amino-6-(2,6-dichlorophenyl)-8-methyl-2-(4-(4-methylpiperazin-1-yl)phenylamino)pyrido[2,3-d]pyrimidin-7(8H)-one (Example 5) at the doses of 0.5, 1.5, 10, 20, 50 and 100 μM. After 24 h or 48 h, MTT reagent was added to each well, incubated for 2 h and plates were then read in a Synergy-HT Multi-Mode Microplate Reader (Biotek).

DLBCL cell lines = experiment: MTT proliferation assay, growth inhibition; type: cell-based; settings: n = 4 cell lines
Experimental: as §10, §11

FL cell lines = experiment: MTT proliferation assay, growth inhibition; type: cell-based; settings: n = 4 cell lines
Experimental: as §10, §11

MCL cell lines = experiment: MTT proliferation assay, growth inhibition; type: cell-based; settings: N9, n = 9 cell lines
Experimental: as §10, §11

[1] = tested on: panel of 20 NHLs cell lines; experiment: MTT proliferation assay, growth inhibition; type: cell-based; settings: all tested cell lines
Experimental: as §10, §11

phospho-Lyn = experiment: Western blot of BCR kinase phosphorylation in NHL cell lines; type: cell-based; settings: 6 h, UPN-1, JVM-13, DoHH-2, SUDHL-16 cells
Experimental: (§12) Analysis of B-Cell Receptor (BCR) activation signaling molecules by Western Blot and flow cytometry. Total protein extracts in 1% Triton X-100 plus protease and phosphatase inhibitors were made from cells treated with a range of doses of the indicated compound (0.1, 1, 5 and 10 μM). These cells lysates were resolved by standard SDS-PAGE (sodium dodecyl sulfate polyacrylamide gel electrophoresis), transferred to PVDF (polyvinylidene difluoride) membranes and incubated overnight with the indicated primary antibodies (pSyk, pLyn and β-actin) followed by species-matched secondary horseradish peroxidase (HRP)-labelled antibodies. Chemiluminiscence was developed adding ECL (enhanced chemilumiscence) reagent and signal was captured in a LAS4000 device using Image Gauge software (Fujifilm). Intracellular amount of PhosphoY223-Btk was determined by inmunostaining with an anti-phosphoY223-Btk-PE antibody (clone N35-86), using IgG1 K isotype-PE as negative control (BD Biosciences). After the different treatments, cells (5×10^5) were fixed in 4% paraformaldehyde in PBS (15 min, 4° C.), permeabilized with cold methanol (10 min, −20° C.), washed with PBS containing 1% BSA and incubated with the indicated antibodies at room temperature for 15 min. Finally, cells were washed with PBS containing 1% BSA, resuspended in 500 μl PBS and analyzed by flow cytometry in an Attune acoustic focusing cytometer (Life Technologies). The Mean Fluorescence Ratio (MFIR) between the mean fluorescence intensity of Btk-PE signal and isotypic control was then calculated for both untreated and treated conditions. These MFIR were then referred to the untreated control (r).
(§13) To further assess the inhibitory effect of 4-amino-6-(2,6-dichlorophenyl)-8-methyl-2-(4-(4-methylpiperazin-1-yl)phenylamino)pyrido[2,3-d]pyrimidin-7(8H)-one (Example 5) on the activity of BCR kinases, a set of 4 cell lines representative of each entity was exposed for 6 h to increased doses of 4-amino-6-(2,6-dichlorophenyl)-8-methyl-2-(4-(4-methylpiperazin-1-yl)phenylamino)pyrido[2,3-d]pyrimidin-7(8H)-one (Example 5) and cell contents in phospho-Syk and phospho-Lyn were analysed by SDS-PAGE and western blotting with specific antibodies, using β-actin as a loading control. […] For the evaluation of phospho-Btk protein levels, cell lines were treated as above with a 5 μM dose of the compound and stained with an anti-phospho-Btk phycoerythin(PE)-labeled antibody followed by flow cytometry analysis.

phospho-Syk = experiment: as above; type: cell-based; settings: 6 h, UPN-1, JVM-13, DoHH-2, SUDHL-16 cells
Experimental: as §12, §13

PhosphoY223-Btk = experiment: Flow cytometry of intracellular PhosphoY223-Btk; type: cell-based; settings: 5 μM, 6 h
Experimental: as §12, with “After the different treatments, cells (5×10^5) were fixed in 4% paraformaldehyde in PBS (15 min, 4° C.), permeabilized with cold methanol (10 min, −20° C.), washed with PBS containing 1% BSA and incubated with the indicated antibodies at room temperature for 15 min.” left out, “These MFIR were then referred to the untreated control (r).” left out
To further assess the inhibitory effect of 4-amino-6-(2,6-dichlorophenyl)-8-methyl-2-(4-(4-methylpiperazin-1-yl)phenylamino)pyrido[2,3-d]pyrimidin-7(8H)-one (Example 5) on the activity of BCR kinases, a set of 4 cell lines representative of each entity was exposed for 6 h to increased doses of 4-amino-6-(2,6-dichlorophenyl)-8-methyl-2-(4-(4-methylpiperazin-1-yl)phenylamino)pyrido[2,3-d]pyrimidin-7(8H)-one (Example 5) and cell contents in phospho-Syk and phospho-Lyn were analysed by SDS-PAGE and western blotting with specific antibodies, using β-actin as a loading control. […]

[2] = tested on: relapsed/refractory non-Hodgkin's lymphoma and CLL; settings: cited from earlier work
[3] = 24 h, read-out: GI50 range at 24 h
[4] = 24 h, read-out: Mean GI50 at 24 h
[5] = 48 h, read-out: GI50 range at 48 h
[6] = 48 h, read-out: Mean GI50 at 48 h

CN1CCN(c2ccc(Nc3nc(N)c4cc(-c5c(Cl)cccc5Cl)c(=O)n(C)c4n3)cc2)CC1 [Example 5, 4-amino-6-(2,6-dichlorophenyl)-8-methyl-2-(4-(4-methylpiperazin-1-yl)phenylamino)pyrido[2,3-d]pyrimidin-7(8H)-one]
remaining activity at 10 µM (BTK): 3%
remaining activity at 10 µM (LYN): -1%
remaining activity at 10 µM (SYK aa1-635): 9%
GI50 (CLL cell lines; [3]): 5.3 to 6.8 µM
GI50 (CLL cell lines; [4]): 5.9 µM
GI50 (CLL cell lines; [5]): 4.5 to 5.5 µM
GI50 (CLL cell lines; [6]): 4.9 µM
GI50 (DLBCL cell lines; [3]): 4.3 to 6.9 µM
GI50 (DLBCL cell lines; [4]): 5.4 µM
GI50 (DLBCL cell lines; [5]): 3.8 to 7.2 µM
GI50 (DLBCL cell lines; [6]): 5 µM
GI50 (FL cell lines; [3]): 2.6 to 4.9 µM
GI50 (FL cell lines; [4]): 3.7 µM
GI50 (FL cell lines; [5]): 1.4 to 4.4 µM
GI50 (FL cell lines; [6]): 2.7 µM
GI50 (MCL cell lines; [3]): 1.3 to 5.9 µM
GI50 (MCL cell lines; [4]): 3.6 µM
GI50 (MCL cell lines; [5]): 2.2 to 3.6 µM
GI50 (MCL cell lines; [6]): 3 µM
GI50 ([1]; 24 h, read-out: GI50 mean): 4.3 µM
GI50 ([1]; 24 h, read-out: GI50 range): 1.3 to 6.9 µM
GI50 ([1]; 48 h, read-out: GI50 mean): 3.6 µM
GI50 ([1]; 48 h, read-out: GI50 range): 1.4 to 7.2 µM
Lyn phosphorylation inhibition (phospho-Lyn; 1 μM): already detectable
Lyn phosphorylation inhibition (phospho-Lyn; 5 μM): significantly enhanced
Lyn phosphorylation inhibition (phospho-Lyn; 10 μM): almost completely achieved
Syk phosphorylation inhibition (phospho-Syk; 1 μM): already detectable
Syk phosphorylation inhibition (phospho-Syk; 5 μM): significantly enhanced
Syk phosphorylation inhibition (phospho-Syk; 10 μM): almost completely achieved
downregulation of phospho-Btk (decrease of mean fluorescence intensity ratio) (PhosphoY223-Btk; DoHH-2 cells): 60%
downregulation of phospho-Btk (decrease of mean fluorescence intensity ratio) (PhosphoY223-Btk; JVM-13 cells): 60%
downregulation of phospho-Btk (decrease of mean fluorescence intensity ratio) (PhosphoY223-Btk; UPN-1 cells): 30%

Cn1c(=O)c(-c2c(Cl)cccc2Cl)cc2c(N)nc(Nc3ccc(NCCN4CCOCC4)cc3)nc21 [Example 6, 4-amino-6-(2,6-dichlorophenyl)-8-methyl-2-(4-(2-morpholinoethylamino)-phenylamino)-pyrido[2,3-d]pyrimidin-7(8H)-one]
remaining activity at 10 µM (BTK): 10%
remaining activity at 10 µM (LYN): 0%
remaining activity at 10 µM (SYK aa1-635): 31%

Cn1c(=O)c(-c2c(Cl)cccc2Cl)cc2c(N)nc(Nc3ccc(OCCN4CCOCC4)cc3)nc21 [Example 7, 4-amino-6-(2,6-dichlorophenyl)-8-methyl-2-(4-(2-morpholinoethoxy)-phenylamino)-pyrido[2,3-d]pyrimidin-7(8H)-one]
remaining activity at 10 µM (BTK): 16%
remaining activity at 10 µM (LYN): 0%
remaining activity at 10 µM (SYK aa1-635): 44%

COc1cc(Nc2ncc(F)c(Nc3ccc4c(n3)N(COP(=O)(O)O)C(=O)C(C)(C)O4)n2)cc(OC)c1OC [fostamatinib]
response rate ([2]; DLBCL patients): 22%
response rate ([2]; FL patients): 10%
response rate ([2]; MCL patients): 11%
partial response (PR) ([2]; patients with CLL (6 of 11)): 55%
dose-limiting toxicity ([2]; phase 1/2 study): diarrhea, neutropenia, and thrombocytopenia
